Measured values taken from patent US20070197543A1, “Use of derivatives of 2, 5-dihydroxyb enzene-sulphonic acids in the elaboration of a medicinal product to enhance the effect of other drugs used for the treatment of erectile dysfunction” (Laboratorios del Dr. Esteve, S.A., priority 2001, published 2007).

Columns and labels:
[1] = tested on: resistance arteries of the human penis; experiment: Relaxation of noradrenaline-contracted human penile resistance arteries induced by sodium nitroprussiate (myograph); conditions: 10 μM; arteries contracted with 1 μM noradrenaline; FIG. 1
Experimental: (§1) To study the enhancing effect of medicinal products used to facilitate penile erection in man a series of studies were carried out of the resistance arteries of the human penis, obtained from patients submitted to penile prosthesis implantation.
(§2) Specimens of human cavernous bodies of the penis were obtained from patients with impotence while these were intervened for prosthetic implantation, as described previously (Gupta et al.; Br. J. Pharmacol., 116: 2201, 1995). The tissues were deposited in M-400 solution (pH 7.4; 400 mOsm/kg. Composition in w/v: 4.19% manitole, 0.2% KH2PO4, 0.97% K2HPO4.3 H2O, 0.11% KCl and 0.08% NaHCO3) at 4° C. at the moment of explant and were transported to the laboratory to be used within the following 16 h.
(§3) The resistance arteries of the penis, helicine arteries (with a luminal diameter of 150-400 μm), which are terminal branches of the deep arteries of the penis, were dissected carefully removing the surrounding trabecular tissue and were cut into 2 mm long arterial segments that were arranged on two wires of 40 μm diameter in a Halpern-Mulvany myograph (J.P. Trading, Aarhus, Denmark) to record […]. […] The arteries were contracted with 1 μM of noradrenaline and their relaxation responses were assessed after adding to the cavities increasing amounts of the different compounds. […]

[2] = tested on: resistance arteries of the human penis; experiment: Relaxation of noradrenaline-contracted human penile resistance arteries induced by sildenaphyl (myograph); conditions: 10 μM; arteries contracted with 1 μM noradrenaline; FIG. 2
Experimental: as §1, §2, §3

[3] = tested on: nitrergic terminations in resistance arteries of the human penis; experiment: Relaxation of human penile resistance arteries induced by transmural electrical stimulation of nitrergic terminations (myograph)
Experimental: as §1, §2, §3

[4] = patients; variable in different patients; cited from earlier work

SMILES	effect on the relaxation produced by different concentrations of sodium nitroprussiate (SNP) [1]	effect on the relaxation produced by different concentrations of sildenaphyl [2]	effect on the effects of 10 nM of sildenaphyl on the relaxation produced by electrical stimulation ([3]; 10 μM combined with 10 nM sildenaphyl, increasing frequencies, FIG. 4)	effect on the relaxation produced by electrical stimulation at increasing frequencies of the nitrergic terminations ([3]; 10 μM, TES 0.5, 1, 2 and 6 Hz, FIG. 3)	therapeutic response [4] [%]
O=S(=O)([O-])c1cc(O)ccc1O.O=S(=O)([O-])c1cc(O)ccc1O.[Ca+2] [Calcium dobesylate, Calcium 2,5-dihidroxybenzenosulphonate]	increases, in a statistically significant manner, the relaxation	increases, in a statistically significant manner, the relaxation	increases, in a statistically significant manner, the effects of 10 nM of sildenaphyl	increases, in a statistically significant manner, the relaxation	
CCCc1nn(C)c2c(=O)[nH]c(-c3cc(S(=O)(=O)N4CCN(C)CC4)ccc3OCC)nc12 [sildenaphyl]					≤ 50
